Results taken from patent publication US20030134842A1, “METHODS FOR THE TREATMENT OR PREVENTION OF INFLAMMATORY DISEASES CHARACTERIZED BY ABNORMAL CELL PROLIFERATION” (priority 1997, published 2003).

Tests used:
red cell Gardos channel = molecular target: T1, red cell Gardos channel (Mus musculus, UniProt O89109); conditions: SAD mouse, oral administration; cited from earlier work
T1 construct: host or cells: red cells of the SAD mouse, in vivo

[1] = tested on: NIH 3T3 mouse fibroblast cells; test: Mitogenic assay (mitogen-induced cell proliferation); type: cell-based; conditions: 10 µM compound, NIH 3T3 mouse fibroblast cells
[2] = tested on: MM-RU human melanoma cells; conditions: SCID mice inoculated with MM-RU human melanoma cells, daily administration; cited from earlier work
Gardos channel = molecular target: T2, Gardos channel (Homo sapiens, UniProt O15554); conditions: patients with sickle cell disease, oral; cited from earlier work
T2 construct: reduces erythrocyte dehydration in patients with sickle cell disease; host or cells: erythrocytes of sickle cell patients, in vivo
T2 sequence (O15554 whole entry): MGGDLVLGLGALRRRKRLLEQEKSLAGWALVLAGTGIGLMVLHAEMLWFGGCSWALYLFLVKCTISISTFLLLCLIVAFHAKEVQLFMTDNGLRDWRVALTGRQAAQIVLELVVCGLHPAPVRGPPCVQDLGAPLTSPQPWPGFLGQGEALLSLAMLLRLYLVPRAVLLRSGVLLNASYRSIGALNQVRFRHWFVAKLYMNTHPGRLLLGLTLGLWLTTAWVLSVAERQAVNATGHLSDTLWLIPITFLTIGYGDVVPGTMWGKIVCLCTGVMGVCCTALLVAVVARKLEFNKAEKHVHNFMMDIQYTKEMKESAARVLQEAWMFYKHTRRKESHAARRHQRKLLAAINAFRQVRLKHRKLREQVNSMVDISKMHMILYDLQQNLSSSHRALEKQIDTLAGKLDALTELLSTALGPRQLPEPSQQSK

T1 sequence (O89109 whole entry): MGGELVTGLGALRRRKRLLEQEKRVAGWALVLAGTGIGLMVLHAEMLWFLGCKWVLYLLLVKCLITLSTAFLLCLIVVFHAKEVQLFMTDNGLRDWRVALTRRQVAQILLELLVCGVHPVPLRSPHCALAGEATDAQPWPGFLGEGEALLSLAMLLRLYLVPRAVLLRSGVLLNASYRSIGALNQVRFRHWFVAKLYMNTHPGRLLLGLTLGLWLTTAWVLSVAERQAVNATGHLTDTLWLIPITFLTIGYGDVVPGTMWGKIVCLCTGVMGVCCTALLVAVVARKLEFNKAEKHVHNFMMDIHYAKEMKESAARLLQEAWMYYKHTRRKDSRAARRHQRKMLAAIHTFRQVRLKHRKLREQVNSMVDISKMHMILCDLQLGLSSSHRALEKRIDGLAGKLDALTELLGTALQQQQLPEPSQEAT

Clc1ccccc1C(c1ccccc1)(c1ccccc1)n1ccnc1 [Clotrimazole]
red cell Gardos channel, K+ content, MCHC, cell density (red cell Gardos channel): inhibition of the red cell Gardos channel, increased red cell K^+ content, a decreased mean cell hemoglobin concentration (MCHC) and decreased cell density
Mitogenic Assay Inhibition [1]: 93.0%
number of lung metastases [2]: significant reduction in the number of lung metastases observed
Gardos channel inhibition and erythrocyte dehydration (Gardos channel): induces inhibition of the Gardos channel and reduces erythrocyte dehydration
